Usually pEC50 stands for the negative decadic logarithm of the EC50, by convention in mol/L. Higher therefore signals a small EC50.

SMILES strings stand for the structures. pEC50: −log10 of the molar value. *1 amine or outer side, *2 acyl side, *3 side chain or, on linkers, in order; H or OH if unused. Where a SMILES comes first, the peptide text is derived from it. Side-chain parts run from the residue outwards. [ ]: non-standard residue; d: D form. The star is where a group is joined. C18 diacid = O=C(O)CCCCCCCCCCCCCCCCC(=O)*; C16 diacid = O=C(O)CCCCCCCCCCCCCCC(=O)*; γGlu = O=C(O)[C@H](CCC(=O)[*:2])N[*:1]; NMeI = CC[C@H](C)[C@H](NC)C(=O)O; AEEA = NCCOCCOCC(=O)O; Aib = CC(C)(N)C(=O)O

These results are taken from patent US20260001928A1 (CORTERIA PHARMACEUTICALS, priority 2022, published 2026).

The test system of the assay is human LAD2 cells. Type of assay: cell-based. On the procedure: LAD2 cells (20000 cells/well, 96-well plates and 10,000 cells/well in 384-well plates) were incubated with compounds for 30 min. The R-hexosaminidase released into the supernatants and in cell lysates was quantified using the fluorogenic substrate 4-methylumbelliferyl-N-acetyl-b-D-glucosaminide.
On the day of the assay, the lyophilized peptides were dissolved in DMSO and/or PBS 1× pH 7.4, to obtain stock solutions. The stock solutions were used to prepare working serial dilutions to have final concentrations in assay ranging from 50, 100 or 300 to 0.1 or 0.001 μM. Each peptide was tested in biological duplicates. When compounds were dissolved in DMSO, the final solvent concentration in assay was 0.5% (v/v).
The percentage of degranulation, expressed as % of R-hexosaminidase release, was calculated by dividing the fluorescence signal of the supernatant by the sum of the signals from the supernatant and cell pellet (lysed with Triton X-100, final 1%) and multiplying by 100.
Dose-response curves were generated by plotting the % of R-hexosaminidase release versus total release of cells treated with triton (y-axis) against the concentrations of peptides tested (x-axis). The Mast Cell Degranulation (MCD) EC50 values and standard errors were calculated using XLfit 5.5.0.5 based on the following equation:
4 Parameter Sigmoidal Model: f=(A+((B−A)/(1+((C/x)^D))))
where A=Emin, B=Emax, C=EC50 and D=slope

For `CC[C@H](C)[C@H](NC(C)=O)C(=O)N[C@H](C(=O)N[C@@H](CC(C)C)C(=O)N[C@@H](CO)C(=O)N[C@@H](CC(C)C)C(=O)N[C@@H](CC(=O)O)C(=O)N[C@@H](C(=O)N1CCC[C@H]1C(=O)N[C@H](C(=O)N[C@@H](CCCCN)C(=O)N[C@@H](CC(C)C)C(=O)N[C@@H](CCCCNC(=O)CC[C@H](NC(=O)CCCCCCCCCCCCCCC(=O)O)C(=O)O)C(=O)N[C@@H](CCCCN)C(=O)N[C@H](C(=O)N[C@@H](CC(C)C)C(=O)N[C@@H](CC(C)C)C(=O)N[C@@H](CCC(=O)O)C(=O)N[C@@H](CCC(N)=O)C(=O)N[C@@H](CCC(=O)O)C(=O)N[C@@H](CCCCN)C(=O)N[C@@H](CCC(N)=O)C(=O)N[C@@H](CCCCN)C(=O)N[C@@H](CCCCN)C(=O)N[C@@H](CCC(N)=O)C(=O)N[C@@H](CCCNC(=N)N)C(=O)N[C@@H](CCC(=O)O)C(=O)N[C@@H](CCC(N)=O)C(=O)N[C@@H](C)C(=O)N[C@@H](CCC(=O)O)C(=O)N[C@H](C(=O)N[C@@H](CC(N)=O)C(=O)N[C@@H](CCC(=O)O)C(=O)N[C@@H](CCC(N)=O)C(=O)N[C@H](C(=O)N[C@@H](CC(C)C)C(=O)N[C@@H](C)C(=O)N[C@@H](CCC(N)=O)C(=O)N[C@H](C(N)=O)C(C)C)[C@@H](C)CC)[C@@H](C)O)[C@@H](C)CC)[C@@H](C)CC)C(C)C)C(C)C` [56 (comp)] (Ac-IVLSLD[dV]PIKLK([γGlu-C16 diacid])KILLEQEKQKKQREQAETNEQILAQV-NH2), the pEC50 is 4.41.

For `CC[C@H](C)[C@H](N)C(=O)N[C@H](C(=O)N[C@@H](CC(C)C)C(=O)N[C@@H](CO)C(=O)N[C@@H](CC(C)C)C(=O)N[C@@H](CC(=O)O)C(=O)N[C@H](C(=O)N1CCC[C@H]1C(=O)N[C@H](C(=O)N[C@@H](CCCCN)C(=O)N[C@@H](CC(C)C)C(=O)N[C@@H](CCCCNC(=O)COCCOCCNC(=O)COCCOCCNC(=O)CC[C@H](NC(=O)CCCCCCCCCCCCCCCCC(=O)O)C(=O)O)C(=O)N[C@@H](CCCCN)C(=O)N[C@H](C(=O)N[C@@H](CC(C)C)C(=O)N[C@@H](CC(C)C)C(=O)N[C@@H](CCC(=O)O)C(=O)N[C@@H](CCC(N)=O)C(=O)N[C@@H](CCC(=O)O)C(=O)N[C@@H](CCCCN)C(=O)N[C@@H](CCC(N)=O)C(=O)N[C@@H](CCCCN)C(=O)N[C@@H](CCCCN)C(=O)N[C@@H](CCC(N)=O)C(=O)N[C@@H](CCCNC(=N)N)C(=O)N[C@@H](CCC(=O)O)C(=O)N[C@@H](CCC(N)=O)C(=O)N[C@@H](C)C(=O)N[C@@H](CCC(=O)O)C(=O)N[C@H](C(=O)N[C@@H](CC(N)=O)C(=O)N[C@@H](CCCCN)C(=O)N[C@@H](CCC(N)=O)C(=O)N[C@H](C(=O)N[C@@H](CC(C)C)C(=O)N[C@@H](C)C(=O)N[C@@H](CCC(N)=O)C(=O)N[C@H](C(N)=O)C(C)C)[C@@H](C)CC)[C@@H](C)O)[C@@H](C)CC)[C@@H](C)CC)C(C)C)C(C)C` [149 (comp)] (H-IVLSLDVPIKLK([AEEA-AEEA-γGlu-C18 diacid])KILLEQEKQKKQREQAETNKQILAQV-NH2), the pEC50 was 4.30.

Consider `CC[C@H](C)[C@H](N)C(=O)N[C@H](C(=O)N[C@@H](CC(C)C)C(=O)N[C@@H](CO)C(=O)N[C@@H](CC(C)C)C(=O)N[C@@H](CC(=O)O)C(=O)N[C@H](C(=O)N1CCC[C@H]1C(=O)N[C@H](C(=O)N[C@@H](CCCCN)C(=O)N[C@@H](CC(C)C)C(=O)N[C@@H](CCCCNC(=O)CC[C@H](NC(=O)CCCCCCCCCCCCCCC(=O)O)C(=O)O)C(=O)N[C@@H](CCC(N)=O)C(=O)N[C@H](C(=O)N[C@@H](CC(C)C)C(=O)N[C@@H](CC(C)C)C(=O)N[C@@H](CCCCN)C(=O)N[C@@H](CCC(N)=O)C(=O)N[C@@H](CCC(=O)O)C(=O)N[C@@H](CCCNC(=N)N)C(=O)N[C@@H](CCC(N)=O)C(=O)N[C@@H](CCCCN)C(=O)N[C@@H](CCCCN)C(=O)N[C@@H](CCC(N)=O)C(=O)N[C@@H](CCCNC(=N)N)C(=O)N[C@@H](CCC(=O)O)C(=O)N[C@@H](CCC(N)=O)C(=O)N[C@@H](C)C(=O)N[C@@H](CCC(=O)O)C(=O)N[C@@H](CCCCN)C(=O)N[C@@H](CC(N)=O)C(=O)N[C@@H](CCCCN)C(=O)N[C@@H](CCC(N)=O)C(=O)N[C@H](C(=O)N[C@@H](CC(C)C)C(=O)N[C@@H](CCC(=O)O)C(=O)N[C@@H](CCC(N)=O)C(=O)N[C@H](C(N)=O)C(C)C)[C@@H](C)CC)[C@@H](C)CC)[C@@H](C)CC)C(C)C)C(C)C` [151 (comp)] (H-IVLSLDVPIKLK([γGlu-C16 diacid])QILLKQERQKKQREQAEKNKQILEQV-NH2), for which the pEC50 was 4.48.

In the case of `CC[C@H](C)[C@H](NC)C(=O)N[C@H](C(=O)N[C@@H](CC(C)C)C(=O)N[C@@H](CO)C(=O)N[C@@H](CC(C)C)C(=O)N[C@@H](CC(=O)O)C(=O)N[C@@H](C(=O)N1CCC[C@H]1C(=O)N[C@H](C(=O)N[C@@H](CCCCN)C(=O)N[C@@H](CC(C)C)C(=O)N[C@@H](CCCCNC(=O)COCCOCCNC(=O)COCCOCCNC(=O)CC[C@H](NC(=O)CCCCCCCCCCCCCCCCC(=O)O)C(=O)O)C(=O)N[C@@H](CCCCN)C(=O)N[C@H](C(=O)N[C@@H](CC(C)C)C(=O)N[C@@H](CC(C)C)C(=O)N[C@@H](CCC(=O)O)C(=O)N[C@@H](CCC(N)=O)C(=O)N[C@@H](CCC(=O)O)C(=O)N[C@@H](CCCCN)C(=O)N[C@@H](CCC(N)=O)C(=O)N[C@@H](CCCCN)C(=O)N[C@@H](CCCCN)C(=O)N[C@@H](CCC(N)=O)C(=O)N[C@@H](CCCNC(=N)N)C(=O)N[C@@H](CCC(=O)O)C(=O)N[C@@H](CCC(N)=O)C(=O)N[C@@H](C)C(=O)N[C@@H](CCC(=O)O)C(=O)N[C@H](C(=O)N[C@@H](CC(N)=O)C(=O)NC(C)(C)C(=O)N[C@@H](CCC(N)=O)C(=O)N[C@H](C(=O)N[C@@H](CC(C)C)C(=O)N[C@@H](C)C(=O)N[C@@H](CCC(N)=O)C(=O)N[C@H](C(N)=O)C(C)C)[C@@H](C)CC)[C@@H](C)O)[C@@H](C)CC)[C@@H](C)CC)C(C)C)C(C)C` [Cmpd 118] (H-[NMeI]VLSLD[dV]PIKLK([AEEA-AEEA-γGlu-C18 diacid])KILLEQEKQKKQREQAETN[Aib]QILAQV-NH2), the negative logarithm of the EC50 (pEC50) was below 4.00.

Compound `CC[C@H](C)[C@H](NC(C)=O)C(=O)N[C@H](C(=O)N[C@@H](CC(C)C)C(=O)N[C@@H](CO)C(=O)N[C@@H](CC(C)C)C(=O)N[C@@H](CC(=O)O)C(=O)N[C@@H](C(=O)N1CCC[C@H]1C(=O)N[C@H](C(=O)N[C@@H](CCCCN)C(=O)N[C@@H](CC(C)C)C(=O)N[C@@H](CCCCNC(=O)CC[C@H](NC(=O)CCCCCCCCCCCCCCCCC(=O)O)C(=O)O)C(=O)N[C@@H](CCCCN)C(=O)N[C@H](C(=O)N[C@@H](CC(C)C)C(=O)N[C@@H](CC(C)C)C(=O)N[C@@H](CCC(=O)O)C(=O)N[C@@H](CCC(N)=O)C(=O)N[C@@H](CCC(=O)O)C(=O)N[C@@H](CCCCN)C(=O)N[C@@H](CCC(N)=O)C(=O)N[C@@H](CCCCN)C(=O)N[C@@H](CCCCN)C(=O)N[C@@H](CCC(N)=O)C(=O)N[C@@H](CCCNC(=N)N)C(=O)N[C@@H](CCC(=O)O)C(=O)N[C@@H](CCC(N)=O)C(=O)N[C@@H](C)C(=O)N[C@@H](CCC(=O)O)C(=O)N[C@H](C(=O)N[C@@H](CC(N)=O)C(=O)NC(C)(C)C(=O)N[C@@H](CCC(N)=O)C(=O)N[C@H](C(=O)N[C@@H](CC(C)C)C(=O)N[C@@H](C)C(=O)N[C@@H](CCC(N)=O)C(=O)N[C@H](C(N)=O)C(C)C)[C@@H](C)CC)[C@@H](C)O)[C@@H](C)CC)[C@@H](C)CC)C(C)C)C(C)C` [Cmpd 125] (Ac-IVLSLD[dV]PIKLK([γGlu-C18 diacid])KILLEQEKQKKQREQAETN[Aib]QILAQV-NH2) gave a pEC50 below 4.00.

In the case of `CC[C@H](C)[C@H](NC)C(=O)N[C@H](C(=O)N[C@@H](CC(C)C)C(=O)N[C@@H](CO)C(=O)N[C@@H](CC(C)C)C(=O)N[C@@H](CC(=O)O)C(=O)N[C@@H](C(=O)N1CCC[C@H]1C(=O)N[C@H](C(=O)N[C@@H](CCCCN)C(=O)N[C@@H](CC(C)C)C(=O)N[C@@H](CCCCNC(=O)CC[C@H](NC(=O)CCCCCCCCCCCCCCCCC(=O)O)C(=O)O)C(=O)N[C@@H](CCCCN)C(=O)N[C@H](C(=O)N[C@@H](CC(C)C)C(=O)N[C@@H](CC(C)C)C(=O)N[C@@H](CCC(=O)O)C(=O)N[C@@H](CCC(N)=O)C(=O)N[C@@H](CCC(=O)O)C(=O)N[C@@H](CCCCN)C(=O)N[C@@H](CCC(N)=O)C(=O)N[C@@H](CCCCN)C(=O)NC(C)(C)C(=O)N[C@@H](CCC(N)=O)C(=O)N[C@@H](CCCNC(=N)N)C(=O)N[C@@H](CCC(=O)O)C(=O)N[C@@H](CCC(N)=O)C(=O)N[C@@H](C)C(=O)N[C@@H](CCC(=O)O)C(=O)N[C@H](C(=O)N[C@@H](CC(N)=O)C(=O)NC(C)(C)C(=O)N[C@@H](CCC(N)=O)C(=O)N[C@H](C(=O)N[C@@H](CC(C)C)C(=O)N[C@@H](C)C(=O)N[C@@H](CCC(N)=O)C(=O)N[C@H](C(N)=O)C(C)C)[C@@H](C)CC)[C@@H](C)O)[C@@H](C)CC)[C@@H](C)CC)C(C)C)C(C)C` [Cmpd 145] (H-[NMeI]VLSLD[dV]PIKLK([γGlu-C18 diacid])KILLEQEKQK[Aib]QREQAETN[Aib]QILAQV-NH2), the pEC50 was below 4.00.
